Data as given in patent publication US10053463B2 (Janssen Pharmaceutica NV, priority 2013, dated 2018).

What was measured:
P2X7 [1] = target: T1, P2X7 (Homo sapiens (Human), UniProt Q99572); assay: P2X7 antagonism in human peripheral blood mononuclear cells (PBMCs), IL-1β release; format: cell-based; conditions: Table 3 (additional runs); for remaining activity at 10 µM: P2X7, 10 μM compound, read-out: PBMC 10 μM (% control)
Method in brief: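 Ficoll-isolated human PBMCs primed with LPS (30 ng/ml) for 1 h, treated with compound for 30 min, then stimulated with 0.5 mM Bz-ATP for 1.5 h. Supernatant IL-1β measured by ELISA as % of LPS+Bz-ATP minus LPS-only release; IC50 from concentration–response of triplicate means.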

P2X7 [2] = target: T1, P2X7; assay: Radioligand binding, human P2X7-1321N1 cell membranes, tracer tritiated A-804598; conditions: Table 3 (additional runs)
Procedure: P2X7 Antagonism in Recombinant Human P2X7 Cells or Recombinant Rat P2X7 Cells: (a) Ca^2+ Flux and (b) Radioligand Binding
(b) Radioligand Binding: human or rat P2X7-1321N1 cells were collected and frozen @−80° C. On the day of the experiment, cell membrane preparations were made according to standard published methods. The total assay volume was 100 μl:10 μl compound (10×)+(b) 40 μl tracer (2.5×)+50 μl membrane (2×). The tracer used for the assay was tritiated A-804598. The compound can be prepared as described in the literature. (Donnelly-Roberts, D. Neuropharmacology 2008, 56 (1), 223-229.) Compounds, tracer and membranes were incubated for 1 hour @ 4° C. The assay was terminated by filtration (GF/B filters pre-soaked with 0.3% PEI) and washed with washing buffer (Tris-HCl 50 mM). The IC50 generated in the binding assay was corrected for tracer concentration and affinity of the tracer to derive at the affinity (K) of the test compounds. […] Data are analyzed and graphed on Graphpad Prism 5. For analysis, each concentration point is averaged from triplicate values and the averaged values are plotted on Graphpad Prism.

T1 sequence (Q99572 whole entry): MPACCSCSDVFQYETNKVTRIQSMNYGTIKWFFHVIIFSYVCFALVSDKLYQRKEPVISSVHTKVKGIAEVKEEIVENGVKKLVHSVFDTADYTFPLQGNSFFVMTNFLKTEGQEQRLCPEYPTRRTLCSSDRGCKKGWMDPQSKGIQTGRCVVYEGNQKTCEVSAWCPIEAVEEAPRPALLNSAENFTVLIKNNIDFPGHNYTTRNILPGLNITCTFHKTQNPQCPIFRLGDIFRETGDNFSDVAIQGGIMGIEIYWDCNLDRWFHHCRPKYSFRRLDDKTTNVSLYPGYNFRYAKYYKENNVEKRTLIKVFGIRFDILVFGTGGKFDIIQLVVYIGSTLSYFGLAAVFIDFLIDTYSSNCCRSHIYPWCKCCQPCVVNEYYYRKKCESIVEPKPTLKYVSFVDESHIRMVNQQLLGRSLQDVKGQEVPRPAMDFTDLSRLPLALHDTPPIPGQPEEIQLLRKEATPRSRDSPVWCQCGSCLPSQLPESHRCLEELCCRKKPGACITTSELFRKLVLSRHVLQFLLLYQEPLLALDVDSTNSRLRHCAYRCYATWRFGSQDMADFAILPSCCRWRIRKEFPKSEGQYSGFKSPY

| remaining activity at 10 µM (P2X7 [1]) [%] | Ki (P2X7 [2]) [nM] | PBMC 1 μM (% control) (P2X7 [1]; 1 μM compound) | Compound |
| --- | --- | --- | --- |
| -4.2 | 3.6 |  | C[C@H]1Cn2c(-c3ccccn3)nnc2-c2nnc(-c3cccc(C(F)(F)F)c3Cl)n21 [Example 124, (S)-3-(2-chloro-3-(trifluoromethyl)phenyl)-5-methyl-8-(pyridin-2-yl)-5,6-dihydrobis([1,2,4]triazolo)[4,3-a:3′,4′-c]pyrazine] |
| 28.5 | 10.5 |  | Cc1ccnc(-c2nnc3n2C[C@H](C)n2c(-c4cccc(C(F)(F)F)c4Cl)nnc2-3)c1 [Example 125, (S)-3-(2-chloro-3-(trifluoromethyl)phenyl)-5-methyl-8-(4-methylpyridin-2-yl)-5,6-dihydrobis([1,2,4]triazolo)[4,3-a:3′,4′-c]pyrazine] |
| 0.1 | 10 |  | C[C@H]1Cn2c(-c3ccc(F)cn3)nnc2-c2nnc(-c3ccc(Cl)cc3Cl)n21 [Example 127, (S)-3-(2,4-dichlorophenyl)-8-(5-fluoropyridin-2-yl)-5-methyl-5,6-dihydrobis([1,2,4]triazolo)[4,3-a:3′,4′-c]pyrazine] |
| 3.8 | 6.3 |  | Cc1c(-c2nnc3n2[C@@H](C)Cn2c(-c4ccc(F)cn4)nnc2-3)cccc1C(F)(F)F [Example 128, (S)-8-(5-fluoropyridin-2-yl)-5-methyl-3-(2-methyl-3-(trifluoromethyl)phenyl)-5,6-dihydrobis([1,2,4]triazolo)[4,3-a:3′,4′-c]pyrazine] |
| -0.7 | 6.3 |  | COc1ccnc(-c2nnc3n2C[C@H](C)n2c(-c4ccc(Cl)cc4Cl)nnc2-3)c1 [Example 130, (S)-3-(2,4-dichlorophenyl)-8-(4-methoxypyridin-2-yl)-5-methyl-5,6-dihydrobis([1,2,4]triazolo)[4,3-a:3′,4′-c]pyrazine] |
| 0.7 | 5 |  | COc1ccnc(-c2nnc3n2C[C@H](C)n2c(-c4cccc(C(F)(F)F)c4C)nnc2-3)c1 [Example 131, (S)-8-(4-methoxypyridin-2-yl)-5-methyl-3-(2-methyl-3-(trifluoromethyl)phenyl)-5,6-dihydrobis([1,2,4]triazolo)[4,3-a:3′,4′-c]pyrazine] |
|  | 28.2 | 50.7 | FC(F)(F)c1cccc(-c2nnc3n2CCn2c(-c4cnccn4)nnc2-3)c1Cl [Example 132, 3-[2-Chloro-3-(trifluoromethyl)phenyl]-8-pyrazin-2-yl-5,6-dihydrobis[1,2,4]triazolo[4,3-a:3′,4′-c]pyrazine] |

| Compound | remaining activity at 10 µM (P2X7 [1]) [%] | Ki (P2X7 [2]) [nM] | PBMC 1 μM (% control) (P2X7 [1]; 1 μM compound) |
| --- | --- | --- | --- |
| C[C@H]1Cn2c(-c3ccc(F)cn3)nnc2-c2nnc(-c3cccc(Cl)c3Cl)n21 [Example 126, (S)-3-(2,3-dichlorophenyl)-8-(5-fluoropyridin-2-yl)-5-methyl-5,6-dihydrobis([1,2,4]triazolo)[4,3-a:3′,4′-c]pyrazine] | -0.5 | 12.6 |  |
| COc1ccnc(-c2nnc3n2C[C@H](C)n2c(-c4cccc(Cl)c4Cl)nnc2-3)c1 [Example 129, (S)-3-(2,3-dichlorophenyl)-8-(4-methoxypyridin-2-yl)-5-methyl-5,6-dihydrobis([1,2,4]triazolo)[4,3-a:3′,4′-c]pyrazine] | -0.2 | 10 |  |
